Measured values from patent publication US4643999A, “2-substituted imidazo[1,2-c]pyrimidines having anxiolytic properties” (priority 1983, dated 1987).

Tests used:
[1] = biological target: benzodiazepine receptor; assay: affinity for the benzodiazepine receptor, [3H] flunitrazepam radio receptor binding (Squires and Braestrup, modified); settings: inhibition by 50% of specific binding of 0.6 nM [3H] flunitrazepam to rat forebrain membrane preparations
Description: The affinity of the compounds for the benzodiazepine receptor was assessed using the radioligand [^3 H] flunitrazepam and modifications of the original radio receptor binding method of Squires and Braestrup [Nature, Vol. 266 (1977) p. 732]. The values given in Table II are nanomolar concentrations of test drug which inhibited the specific binding of 0.6 nM [^3 H] flunitrazepam to rat forebrain membrane preparations by 50% (IC50 nM).

[2] = Geller conflict, screening for anxiolytic activity (conflict method of Geller et al, modified); format: in vivo; settings: po; read-out: GELLER CONFLICT MED (minimum effective dose at which there was an observed increase in shocks above control)
Description: Screening for anxiolytic activity was carried out by modifications of the conflict method of Geller et al [Psychopharmacologia, (1960), Vol. I, p. 482]. The values given in Table II are the minimum effective doses at which there was an observed increase in shocks above control (MED mg/kg po).

IC50 [1] [nM]	SMILES	minimal effective dose [2] [mg/kg]
18	CSc1cc2nc(C(=O)c3ccccc3)cn2c(SC)n1 [Example 13, {5,7-bis(methylthio)-imidazo[1,2-c]pyrimidin-2-yl}phenylmethanone]	50
2000	CCn1c(OC)cc2nc(C(=O)c3ccccc3)cn2c1=O [Example 2, 2-benzoyl-6-ethyl-7-methoxyimidazo[1,2-c]pyrimidin-5-one]	2
126	COc1cc2nc(C(=O)c3ccccc3)cn2c(SC)n1 [Example 12, {7-methoxy-5-methylthio-imidazo[1,2-c]pyrimidin-2-yl}phenylmethanone]	5
215	CCc1nc(OC)cc2nc(C(=O)c3ccccc3)cn12 [Example 5, (5-ethyl-7-methoxy-imidazo[1,2-c]pyrimidin-2-yl)phenylmethanone]	10
520	COc1cc2nc(C(=O)c3ccccc3)cn2c(C)n1 [Example 4, (7-methoxy-5-methyl-imidazo[1,2-c]pyrimidin-2-yl)-phenylmethanone]	50
120	C=CCn1c(SC)cc2nc(C(=O)c3ccccc3)cn2c1=O [Example 15, 6-allyl-2-benzoyl-7-methylthio-imidazo[1,2-c]pyrimidin-5-one]	50
1000	COc1cc2nc(C(=O)c3ccccc3)cn2c(OC)n1 [Example 10, (5,7-dimethoxy-imidazo[1,2-c]pyrimidin-2-yl) phenylmethanone]	10
140	CCn1c(SC)cc2nc(C(=O)c3ccccc3)cn2c1=O [Example 14, 2-benzoyl-6-ethyl-7-methylthio-imidazo[1,2-c]pyrimidin-5-one]	5
890	CCOc1nc(OC)cc2nc(C(=O)c3ccccc3)cn12 [Example 11, (5-ethoxy-7-methoxy-imidazo[1,2-c]pyrimidin-2-yl) phenylmethanone]	–
500	C=CCn1c(OC)cc2nc(C(=O)c3ccccc3)cn2c1=O [Example 9, 6-allyl-2-benzoyl-7-methoxy-imidazo[1,2-c]pyrimidin-5-one]	5
1000	CCCn1c(OC)cc2nc(C(=O)c3ccccc3)cn2c1=O [Example 3, 2-benzoyl-7-methoxy-6-propyl-imidazo[1,2-c]pyrimidin-5-one]	10
